Assay results: PubChem BioAssay (NCI)
“And” between values parts separate entries of the source, which are not always exact repeats. Equal values may be shown once.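 Method: 48-hour compound exposure of cells in 96-well plates, five concentrations, linear interpolation of endpoints. The concentration for 50% growth inhibition is given as GI50. TGI denotes the concentration required for complete inhibition of growth.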

Key:
Assay in all cases: inhibition of tumour cell growth, NCI panel, 48 h
MOLT-4 leukemia = system: MOLT-4 leukemia
A549 NSCLC = system: A549 NSCLC
786-0 renal = system: 786-0 renal
OVCAR-3 ovarian = system: OVCAR-3 ovarian
A498 renal = system: A498 renal
OVCAR-5 ovarian = system: OVCAR-5 ovarian
SF-268 CNS = system: SF-268 CNS
SF-295 CNS = system: SF-295 CNS
NCI/ADR-RES ovarian = system: NCI/ADR-RES ovarian
MCF7 breast = system: MCF7 breast

SMILES	TGI (MOLT-4 leukemia) [µM]	TGI (A549 NSCLC) [µM]	TGI (786-0 renal) [µM]	TGI (OVCAR-3 ovarian) [µM]	TGI (A498 renal) [µM]	TGI (OVCAR-5 ovarian)	TGI (SF-268 CNS) [µM]	TGI (SF-295 CNS) [µM]	TGI (NCI/ADR-RES ovarian) [µM]	TGI (MCF7 breast) [µM]	GI50 (NCI/ADR-RES ovarian) [µM]	GI50 (A549 NSCLC) [µM]	GI50 (OVCAR-3 ovarian) [µM]	GI50 (A498 renal) [µM]	GI50 (OVCAR-5 ovarian) [µM]	GI50 (SF-268 CNS) [µM]	GI50 (SF-295 CNS) [µM]	GI50 (MOLT-4 leukemia) [µM]	GI50 (MCF7 breast) [µM]
O=C(OCc1ccccc1C1CSCSC1)c1cc(C(=O)OCc2ccccc2C2CSCSC2)c(C(=O)OCc2ccccc2C2CSCSC2)cc1C(=O)OCc1ccccc1C1CSCSC1	> 100	> 100	> 100	> 100	> 100	> 100 µM	> 100	> 100	–	–	–	–	–	–	–	–	–	–	–
C=C[C@@](C)(/C=C/c1ccc(O)cc1)CCC=C(C)C	28	35.1	–	32.2	35.6	33.5 µM	–	34.4	31	35.2	–	–	–	–	–	–	–	–	–
O=c1oc2ccc(Cl)cc2cc1-c1cn2ccsc2n1	> 100	> 100	> 100	> 100	–	–	> 100	> 100	> 100	65.4	–	–	–	–	–	–	–	–	–
CC1=C2C(=O)c3ccccc3C(=O)[C@H]2C[C@@H](N2CCCCCC2=O)O1	58.5	39.7	32.7	38.2	> 100	30.4 µM	36.3	35.6	49.8	–	–	–	–	–	–	–	–	–	–
COC1=CC(=O)C2=C(C1=O)[C@H]1CC[C@]3(C)[C@@H](OC(C)=O)CC[C@H]3[C@@H]1CC2	84	> 100	> 100	> 100	> 100	> 100 µM	> 100	> 100	> 100	–	–	–	–	–	–	–	–	–	–
C=C1CC(Cn2cc(Br)c(=O)[nH]c2=O)(c2ccc(-c3ccccc3)cc2)OC1=O (configuration not stated)	–	21.6	2.29	2.98	2.33	15.6 µM	4.64	18.5	4.82	1.75	–	–	–	–	–	–	–	–	–
COc1ccc(C2=C(OC(=O)N(C)C)c3cccn3-c3cc(Cl)ccc3S2)cc1	> 10	> 10	> 10	–	–	–	> 10	> 10	–	> 10	–	–	–	–	–	–	–	–	–
Cc1cc2n([O-])cccc-2[n+](=O)c1	> 100	> 100	–	> 100	–	> 100 µM	> 100	> 100	–	–	–	–	–	–	–	–	–	–	–
CC12CC(C/C1=N/O)C(C)(C)C2 (configuration not stated)	–	> 100	> 100	> 100	> 100	> 100 µM	> 100	> 100	–	> 100	–	–	–	–	–	–	–	–	–
NS(=O)(=O)c1cc(S(N)(=O)=O)c(NC(=O)N(c2ccccc2)c2ccccc2)c(Cl)c1Cl	42	> 100	> 100	49.4	–	> 100 µM	> 100	95.9	54.4	> 100	–	–	–	–	–	–	–	–	–
NC(=S)N/N=C\CC(O)(C(F)(F)F)C(F)(F)F	> 10	> 10	> 10	> 10	> 10	–	> 10	> 10	> 10	> 10	–	–	–	–	–	–	–	–	–
CC(C)CCCC(C)[C@H]1CC[C@H]2N=C(Nc3ccccc3)CCC[C@]12C (some centres not stated)	3.97	14.5	3.45	6.8	10.8	–	7.17	3.1	3.32	3.57	–	–	–	–	–	–	–	–	–
O=S1(=O)OCCOS(=O)(=O)C1Cc1nc2ccccc2[nH]1	92.4	> 100	> 100	> 100	–	> 100 µM	–	> 100	> 100	> 100	–	–	–	–	–	–	–	–	–
CC(C)C1CC(CO)(CNc2cc(Cl)nc(N)n2)C1 (configuration not stated)	–	> 100	> 100	> 100	65.9	> 100 µM	> 100	> 100	> 100	> 100	–	–	–	–	–	–	–	–	–
CC(=O)CC1(C)OC(N)=C(C#N)C1(C#N)C#N (configuration not stated)	–	> 100	> 100	–	> 100	> 100 µM	> 100	> 100	> 100	> 100	–	–	–	–	–	–	–	–	–
COC(=O)C(C(=O)C(=O)NC1Nc2ccc(C)cc2S1)c1nc2ccc(Cl)cc2[nH]c1=O (configuration not stated)	–	> 100	> 100	> 100	> 100	> 100 µM	> 100	> 100	> 100	> 100	–	–	–	–	–	–	–	–	–
CCN(CC)CCCCC1CCN(CC(=O)N2c3ccccc3NC(=O)CC2C)CC1 (configuration not stated)	> 100	> 100	> 100	> 100	> 100	> 100 µM	> 100	> 100	–	–	–	–	–	–	–	–	–	–	–
COC(=O)c1c(OC)cc2cc3c(c(O)c2c1C)C(=O)C1(O)C(=O)C=C(OC)C(OC(=O)CC(C)N)=C1C3=O (configuration not stated)	76.3	> 100	> 100	> 100	–	> 100 µM	> 100	> 100	> 100	67.3	–	–	–	–	–	–	–	–	–
Cc1cc([N+](=O)[O-])c(S(=O)(=O)c2ccccc2)c([N+](=O)[O-])c1	> 28.9	41.3	12.3	11.4	35.6	33.6 µM	50.4	36.9	–	–	–	–	–	–	–	–	–	–	–
CC1(C)[C@@H]2CC[C@@]1(C)[C@H](O)[C@@H]2SCc1ccccc1	49.7	48.6	32.9	31.8	0.0578	33.1 µM	32.6	33	33	–	–	–	–	–	–	–	–	–	–
CC(c1ccccc1)N1CC(C)(c2ccccc2)N(O)C(c2ccccc2)C1C (configuration not stated)	29.8	37.8	30.2	40.8	85.3	> 100 µM	31.3	37.5	–	–	–	–	–	–	–	–	–	–	–
COc1cc2cc(C(=O)N3CC(CCl)c4c3cc([N+](C)(C)Cc3ccc([N+](=O)[O-])n3C)c3ccccc43)[nH]c2c(OC)c1OC (configuration not stated)	16	1.06	–	> 100	–	> 100 µM	> 100	> 38.8	4.38	12.5	–	–	–	–	–	–	–	–	–
CCCCCCOc1ccc(C(=N)N(CCCC)CCCC)c2ccccc12	–	3.31	–	2.98	2.45	2.94 µM	3.53	3.17	2.79	–	1.43	1.76	1.49	1.19	1.53	1.62	1.6	–	–

SMILES	TGI (MOLT-4 leukemia) [µM]	TGI (A549 NSCLC) [µM]	TGI (786-0 renal) [µM]	TGI (OVCAR-3 ovarian) [µM]	TGI (A498 renal) [µM]	TGI (OVCAR-5 ovarian)	TGI (SF-268 CNS) [µM]	TGI (SF-295 CNS) [µM]	TGI (NCI/ADR-RES ovarian) [µM]	TGI (MCF7 breast) [µM]	GI50 (NCI/ADR-RES ovarian) [µM]	GI50 (A549 NSCLC) [µM]	GI50 (OVCAR-3 ovarian) [µM]	GI50 (A498 renal) [µM]	GI50 (OVCAR-5 ovarian) [µM]	GI50 (SF-268 CNS) [µM]	GI50 (SF-295 CNS) [µM]	GI50 (MOLT-4 leukemia) [µM]	GI50 (MCF7 breast) [µM]
CC(C)(C)c1ccc(-c2nnc(-c3cc(C#N)cc(-c4nnc(-c5ccc(C(C)(C)C)cc5)o4)c3)o2)cc1	> 100	> 100	> 100	> 100	> 100	> 100 µM	> 100	> 100	> 100	–	–	–	–	–	–	–	–	–	–
O=C1CSC2(CC(/C=C/c3ccccc3Br)=NN2c2cccc(S(=O)(=O)O)c2)N1c1nc2ccccc2s1 (configuration not stated)	> 100	> 100	> 100	–	> 100	> 100 µM	> 100	–	> 100	> 100	–	–	–	–	–	–	–	–	–
N#CCCC1(CCC#N)CCCCCCC(CCC#N)(CCC#N)C(O)C1O (configuration not stated)	–	> 100	> 100	> 100	> 100	> 100 µM	> 100	> 100	> 100	> 100	–	–	–	–	–	–	–	–	–
CC1(C)COC(c2c(-c3ccccc3)noc2CS(=O)c2ccccc2)=N1 (configuration not stated)	> 100	> 100	> 100	> 100	> 100	> 100 µM	> 100	> 100	–	–	–	–	–	–	–	–	–	–	–
Oc1[nH]c2ccccc2c1/C=c1/cc2c(c(-c3ccc(C(F)(F)F)cc3)n1)=Nc1ccccc1-2	13.2	28.8	–	7.69	38.6	33.8 µM	38.8	28.4	18.8	5.14	1.9	4.79	2.36	5.2	11.8	10.3	2.99	3.32	1.53
Cc1ccc(S(=O)(=O)N/N=C2\C3CC4CC(C3)C2C4)cc1 (configuration not stated)	> 100	> 100	> 100	> 100	–	> 100 µM	–	> 100	> 100	> 100	–	–	–	–	–	–	–	–	–
[N-]=[N+]=C(C(=O)C(=[N+]=[N-])C(=O)c1ccccc1)C(=O)c1ccccc1	–	> 100	> 100	> 100	–	> 100 µM	> 100	> 100	> 100	> 100	–	–	–	–	–	–	–	–	–
OC12CCCCCC1(N1CCOCC1)c1ccccc12 (configuration not stated)	> 100	> 100	> 100	> 100	> 100	> 100 µM	> 100	> 100	–	–	–	–	–	–	–	–	–	–	–
CC(C)(C)CC(C)(C)c1ccc(OCCOCC[N+](C)(C)Cc2ccccc2)cc1	6.05	32.8	24.4	6.8	–	3.25 µM and 19.2 µM	5.92	28.4	38.8	–	16.2	–	–	1.54	1.7	–	–	–	–
C/C(=C\Cc1cc(O)ccc1O)CCc1c(C)cc(O)c(C=O)c1C	> 100	> 100	62.6	53.1	> 100	–	46	79	–	–	–	–	–	–	–	–	–	–	–
CCOC1=C2NC(Cc3ccc(F)cc3)=NC2C(=O)c2ccccc21 (configuration not stated)	46.7	–	47.8	> 100	87.9	> 100 µM	–	–	–	–	–	–	–	–	–	–	–	–	–
Cc1cc(S(=O)(=O)O)c(NC(=O)c2oc3cc(O)ccc3c(=O)c2C)cc1Cl	> 100	> 100	> 100	> 100	–	> 100 µM	> 100	> 100	> 100	> 100	–	–	–	–	–	–	–	–	–
COc1ccc(-c2c3ccccc3c(-c3ccc(OCCCCCBr)cc3)c3ccccc23)cc1	> 100	> 100	–	> 100	–	> 100 µM	> 100	> 100	–	–	–	–	–	–	–	–	–	–	–
Cc1cc2occ(-c3ccc(Cl)cc3)c2c(=O)o1	> 100	> 100	> 100	> 100	> 100	> 100 µM	> 100	> 100	–	–	–	–	–	–	–	–	–	–	–
c1ccc(OCCSCCCCCCCCCCSCCOc2ccccc2)cc1	> 100	> 100	> 100	> 100	> 100	> 100 µM	> 100	> 100	–	–	–	–	–	–	–	–	–	–	–
O=CNNC(=O)Nc1ccc(Cl)cc1	> 100	> 100	> 100	–	97.6	> 100 µM	> 100	> 100	> 100	> 100	–	–	–	–	–	–	–	–	–
CNc1ccc(S(=O)Nc2ccccc2)cc1 (configuration not stated)	> 100	> 100	> 100	> 100	–	> 100 µM	> 100	> 100	> 100	> 100	–	–	–	–	–	–	–	–	–
CC(=O)Nc1ccc(C(=O)N2N=C(C)/C(=C/c3ccc(O)cc3)C2=O)cc1	> 100	> 100	> 100	> 100	–	> 100 µM	> 100	> 100	–	–	–	–	–	–	–	–	–	–	–
Cc1ccc2c(c1)CC1(C2=O)[C@H](c2ccccc2)C2C(=O)c3ccc(C)cc3C2[C@H]1c1ccccc1 (some centres not stated)	> 100	> 100	> 100	> 100	> 100	> 100 µM	> 100	> 100	–	> 100	–	–	–	–	–	–	–	–	–
C=CCOC(=O)CCCCCCCCCCCCCCCOC(=O)C1=C(CCC[C@@H](C)O[Si](C)(C)C(C)(C)C)NC(=O)N2[C@H](CC3(CC/C=C\[C@H](CC)O[Si](C(C)C)(C(C)C)C(C)C)OCCO3)CC[C@H]12	–	> 100	> 100	> 100	> 100	> 100 µM	> 100	> 100	> 100	> 100	–	–	–	–	–	–	–	–	–
Nc1c(N=Nc2ccc(-c3ccc(N=Nc4c(O)ccc5cc(S(=O)(=O)O)cc(S(=O)(=O)O)c45)cc3)cc2)c(S(=O)(=O)O)cc2cc(S(=O)(=O)O)c(N=Nc3ccccc3)c(O)c12	> 100	> 100	–	> 100	> 100	> 100 µM	> 100	> 100	> 100	> 100	–	–	–	–	–	–	–	–	–
O=C(CSc1nc2ccc(I)cc2c(=O)n1Cc1ccccc1)NN1C(=O)CCC1=O	> 100	> 100	> 100	70.6	–	> 100 µM	> 100	> 100	> 100	> 100	–	–	–	–	–	–	–	–	–
